# Source: US20040024024A1, “Aromatic sulfone hydroxamates and their use as protease inhibitors” (priority 2001, published 2004)
# Assays:
# Assay in all cases: In vitro MMP inhibition, IC50 determination (fluorogenic substrate I)
# Assay type in all cases: biochemical
# Human recombinant MMP-1 = target: T1, Human recombinant MMP-1 (Homo sapiens, UniProt P03956)
# T1 construct: made in house; host or cells: MMP-1-transfected HT-1080 cells (spent media)
# T1 sequence (P03956 100-469): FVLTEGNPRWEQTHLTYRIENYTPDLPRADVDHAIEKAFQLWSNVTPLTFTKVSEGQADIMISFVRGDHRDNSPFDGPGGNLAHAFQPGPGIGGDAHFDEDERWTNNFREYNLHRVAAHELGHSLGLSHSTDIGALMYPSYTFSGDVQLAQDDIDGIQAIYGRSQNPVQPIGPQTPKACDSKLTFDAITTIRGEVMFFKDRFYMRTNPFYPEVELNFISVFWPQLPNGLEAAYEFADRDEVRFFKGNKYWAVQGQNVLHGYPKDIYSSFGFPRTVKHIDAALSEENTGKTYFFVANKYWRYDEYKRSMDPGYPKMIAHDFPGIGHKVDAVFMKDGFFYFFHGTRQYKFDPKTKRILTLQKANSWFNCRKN
# In short: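 APMA- or trypsin-activated enzyme, purified from spent media of transfected HT-1080 cells, incubated at room temperature with 4 μM MCA-Pro-Leu-Gly-Leu-Dpa-Ala-Arg-NH2 and graded inhibitor in Tris buffer pH 7.5 (10 mM CaCl2, 0.05% Brij). Cleavage read by fluorescence (ex 328/em 415 nm); IC50 from fluorescence reduction versus inhibitor concentration.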
# Human recombinant MMP-2 = target: T2, Human recombinant MMP-2 (Homo sapiens, UniProt P08253)
# T2 construct: made in house; host or cells: MMP-2-transfected p2AHT2 cells
# T2 sequence (P08253 110-660): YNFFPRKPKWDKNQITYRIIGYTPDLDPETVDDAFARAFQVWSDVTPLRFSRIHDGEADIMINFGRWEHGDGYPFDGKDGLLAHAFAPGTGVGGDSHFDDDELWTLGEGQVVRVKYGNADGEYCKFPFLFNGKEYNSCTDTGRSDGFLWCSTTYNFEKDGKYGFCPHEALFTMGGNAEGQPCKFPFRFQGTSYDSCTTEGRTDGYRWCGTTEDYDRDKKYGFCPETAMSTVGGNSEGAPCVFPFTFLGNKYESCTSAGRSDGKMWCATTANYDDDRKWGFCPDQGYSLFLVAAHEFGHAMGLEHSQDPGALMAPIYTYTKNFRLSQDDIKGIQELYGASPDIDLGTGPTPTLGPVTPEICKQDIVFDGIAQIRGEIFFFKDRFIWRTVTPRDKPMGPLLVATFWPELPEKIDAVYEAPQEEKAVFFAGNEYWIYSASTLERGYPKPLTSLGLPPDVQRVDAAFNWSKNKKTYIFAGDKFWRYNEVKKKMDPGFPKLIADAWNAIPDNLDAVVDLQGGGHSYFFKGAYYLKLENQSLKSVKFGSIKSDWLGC
# In short: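 APMA- or trypsin-activated recombinant MMP-2 was incubated at room temperature with serial inhibitor dilutions in Tris buffer pH 7.5 (100 mM NaCl, 10 mM CaCl2, 0.05% Brij), with DMSO from 1% stocks, and 4 μM substrate I. Cleavage was read by fluorescence at 328/415 nm; IC50 was taken from the loss of fluorescence versus inhibitor concentration.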
# Human recombinant MMP-9 = target: T3, Human recombinant MMP-9 (Homo sapiens, UniProt P14780)
# T3 construct: made in house; host or cells: MMP-9-transfected HT1080 cells (spent media)
# T3 sequence (P14780 107-707 limits assumed): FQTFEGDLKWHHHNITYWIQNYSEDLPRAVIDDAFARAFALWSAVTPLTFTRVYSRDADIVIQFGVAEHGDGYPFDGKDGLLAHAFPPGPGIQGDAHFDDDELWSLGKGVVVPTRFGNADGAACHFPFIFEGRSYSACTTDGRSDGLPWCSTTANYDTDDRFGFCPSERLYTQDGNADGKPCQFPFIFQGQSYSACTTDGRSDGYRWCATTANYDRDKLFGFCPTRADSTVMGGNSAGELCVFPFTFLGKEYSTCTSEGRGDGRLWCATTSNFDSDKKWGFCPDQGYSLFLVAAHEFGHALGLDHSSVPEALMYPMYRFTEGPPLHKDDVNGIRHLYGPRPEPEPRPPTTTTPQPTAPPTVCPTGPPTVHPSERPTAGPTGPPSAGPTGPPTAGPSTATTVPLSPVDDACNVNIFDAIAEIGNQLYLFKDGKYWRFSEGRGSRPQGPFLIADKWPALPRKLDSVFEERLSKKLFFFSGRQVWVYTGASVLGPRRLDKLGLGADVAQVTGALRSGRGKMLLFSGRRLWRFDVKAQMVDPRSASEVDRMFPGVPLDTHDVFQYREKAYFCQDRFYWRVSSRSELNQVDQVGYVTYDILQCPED
# In short: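 MMP-9 proenzyme purified from transfected HT1080 cell media, activated with APMA or trypsin. Compound dilutions in pH 7.5 Tris/NaCl/CaCl2 buffer with 0.05% polyoxyethylene 23 lauryl ether, incubated at room temperature with 4 μM MCA/Dpa substrate I. IC50 from fluorescence loss (ex 328, em 415 nm) versus inhibitor concentration.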
# Human recombinant MMP-14 = target: T4, Human recombinant MMP-14 (Homo sapiens, UniProt P50281)
# T4 construct: The catalytic domain enzyme was expressed in E. coli inclusion bodies, solubilized in urea; made in house
# In short: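 Catalytic-domain MMP-14, expressed in E. coli and refolded, activated with APMA or trypsin; compounds incubated at room temperature with 4 μM fluorogenic substrate I (MCA-PLGL-Dpa-AR-NH2) in Tris/NaCl/CaCl2 buffer, pH 7.5. Fluorescence at ex 328/em 415 nm; IC50 from loss of fluorescence versus inhibitor concentration.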
# Human recombinant MMP-13 = target: T5, Human recombinant MMP-13 (Homo sapiens, UniProt P45452)
# T5 construct: made in house; host or cells: baculovirus / insect cells
# In short: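 Fluorescence at 415 nm (excitation 328 nm) reports Gly-Leu cleavage of 4 μM quenched methoxycoumarin peptide substrate I. Human recombinant MMP-13, activated by trypsin or APMA, was incubated at room temperature with varied inhibitor concentrations in pH 7.5 Tris/NaCl/CaCl2 buffer; IC50 derived from reduced fluorescence.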
# [1] = value outside parentheses (Ki in parenthesis)
# [2] = substrate (I) 4 μM, room temperature, values not in parenthesis
Compound,IC50 (Human recombinant MMP-1; [1]),IC50 (Human recombinant MMP-2; [1]),IC50 (Human recombinant MMP-9; [1]),IC50 (Human recombinant MMP-14; [1]),IC50 (Human recombinant MMP-13; [1]),IC50 (Human recombinant MMP-1; value outside parenthesis),IC50 (Human recombinant MMP-2; value outside parenthesis),IC50 (Human recombinant MMP-9; value outside parenthesis),IC50 (Human recombinant MMP-14; value outside parenthesis),IC50 (Human recombinant MMP-13; value outside parenthesis),further results
O=C(NO)C1(S(=O)(=O)c2ccc(OCCCSCc3ccccc3)cc2)CCOCC1 [Example 439],> 10000 nM,2000 nM,6000 nM,> 10000 nM,25 nM,–,–,–,–,–,–
O=C(NO)C1(S(=O)(=O)c2ccc(OCCSc3nc4ccc(Cl)cc4o3)cc2)CCOCC1 [Example 502],–,–,–,–,–,–,–,–,–,–,IC50 (Human recombinant MMP-1; value outside parentheses): > 10000 nM; IC50 (Human recombinant MMP-2; value outside parentheses): 22.7 nM; IC50 (Human recombinant MMP-9; value outside parentheses): 160 nM; IC50 (Human recombinant MMP-14; value outside parentheses): 5640 nM; IC50 (Human recombinant MMP-13; value outside parentheses): 1 nM
"COc1ccc(C(=O)C(C)CCCOc2ccc(S(=O)(=O)C3(C(=O)NO)CCOCC3)cc2)cc1 (centres unmarked) [Example 26, tetrahydro-N-hydroxy-4-[[4-[[5-(4-methyloxyphenyl)-4-methyl-5-oxopentyl]oxy]phenyl]sulfonyl]-2H-pyran-4-carboxamide]",–,–,–,–,–,–,–,–,–,–,IC50 (Human recombinant MMP-1; [2]): > 10000 nM; IC50 (Human recombinant MMP-2; [2]): 52 nM; IC50 (Human recombinant MMP-9; [2]): 4430 nM; IC50 (Human recombinant MMP-14; [2]): > 10000 nM; IC50 (Human recombinant MMP-13; [2]): 3.4 nM
O=C(NO)C1(S(=O)(=O)c2ccc(OCCCCN3CCc4ccccc4C3)cc2)CCOCC1 [Example 334],> 10000 nM,16.4 nM,866 nM,2880 nM,5.1 nM,–,–,–,–,–,–
O=C1c2ccccc2C(=O)N1CCCCc1ccc(S(=O)(=O)C2(C(=O)NO)CCOCC2)cc1 [Example 35],–,–,–,–,–,–,–,–,–,–,IC50 (Human recombinant MMP-1; [2]): > 10000 nM; IC50 (Human recombinant MMP-2; [2]): 600 nM; IC50 (Human recombinant MMP-9; [2]): > 10000 nM; IC50 (Human recombinant MMP-14; [2]): > 10000 nM; IC50 (Human recombinant MMP-13; [2]): 3 nM
O=C(NO)C1(S(=O)(=O)c2ccc(OCCCc3cccc(-c4ccccc4)c3)cc2)CCOCC1 [Example 269],–,–,–,–,–,> 10000 nM,898 nM,2750 nM,> 10000 nM,1.8 nM,–
CC(C)(C)c1ccc(C(=O)CCCOc2ccc(S(=O)(=O)C3(C(=O)NO)CCOCC3)cc2)cc1 [Example 355],> 10000 nM,17.4 nM,1070 nM,3620 nM,1.1 nM,–,–,–,–,–,–
O=C(NO)C1(S(=O)(=O)c2ccc(OCCCOc3cccc(C(F)(F)F)c3)cc2)CCN(C2CC2)CC1 [Example 443],> 10000 nM,25 nM,375 nM,2430 nM,3.5 nM,–,–,–,–,–,–
O=C(CCCOc1ccc(S(=O)(=O)C2(C(=O)NO)CCOCC2)cc1)Nc1ccccc1O [Example 350],3280 nM,2.6 nM,271 nM,2670 nM,0.5 nM,–,–,–,–,–,–
CC(C)(COc1ccc(S(=O)(=O)C2(C(=O)NO)CCOCC2)cc1)CS(=O)(=O)Cc1ccccc1 [Example 438],> 10000 nM,505 nM,3800 nM,> 10000 nM,11 nM,–,–,–,–,–,–
COc1ccc(OCCCCOc2ccc(S(=O)(=O)C3(C(=O)NO)CCOCC3)cc2)cc1 [Example 450],> 10000 nM,6.6 nM,44 nM,4940 nM,0.9 nM,–,–,–,–,–,–
COc1ccc(C(=O)CCOc2ccc(S(=O)(=O)C3(C(=O)NO)CCOCC3)cc2)cc1 [Example 494],–,–,–,–,–,–,–,–,–,–,IC50 (Human recombinant MMP-1; value outside parentheses): 1520 nM; IC50 (Human recombinant MMP-2; value outside parentheses): < 0.1 nM; IC50 (Human recombinant MMP-9; value outside parentheses): 13.6 nM; IC50 (Human recombinant MMP-14; value outside parentheses): 197 nM; IC50 (Human recombinant MMP-13; value outside parentheses): < 0.1 nM
O=C(NO)C1(S(=O)(=O)c2ccc(OCCCc3nc(-c4cccc([N+](=O)[O-])c4)no3)cc2)CCOCC1 [Example 210],–,–,–,–,–,> 10000 nM,6.9 nM,285 nM,> 10000 nM,1.3 nM,–
CC[C@@H]1C(=O)N(CCCOc2ccc(S(=O)(=O)C3(C(=O)NO)CCOCC3)cc2)C(=O)N1c1ccccc1 [Example 106],–,–,–,–,–,> 10000 nM,1050 nM,> 10000 nM,> 10000 nM,3.5 nM,–
O=C(CCCOc1ccc(S(=O)(=O)C2(C(=O)NO)CCOCC2)cc1)c1ccc(-c2ccccc2)cc1 [Example 356],> 10000 nM,33.1 nM,1650 nM,> 10000 nM,0.8 nM,–,–,–,–,–,–
O=C(CCCCOc1ccc(S(=O)(=O)C2(C(=O)NO)CCOCC2)cc1)c1cccc2ccccc12 [Example 342],> 10000 nM,41.2 nM,2170 nM,> 10000 nM,2 nM,–,–,–,–,–,–
O=C(NO)C1(S(=O)(=O)c2ccc(OCCc3cccc(-c4ccccc4)c3)cc2)CCOCC1 [Example 99],–,–,–,–,–,> 10000 nM,246 nM,3440 nM,> 10000 nM,0.4 nM,–
CC(C)c1ccc(C(=O)NNC(=O)CCCOc2ccc(S(=O)(=O)C3(C(=O)NO)CCOCC3)cc2)cc1 [Example 246],–,–,–,–,–,1170 nM,7.5 nM,105 nM,> 10000 nM,3 nM,–
O=C(CCCOc1ccc(S(=O)(=O)C2(C(=O)NO)CCOCC2)cc1)N1CC[C@@H](c2ccccc2)[C@@H](O)C1 [Example 652],–,–,–,–,–,–,–,–,–,–,IC50 (Human recombinant MMP-1; value outside parentheses): 3670 nM; IC50 (Human recombinant MMP-2; value outside parentheses): 76.6 nM; IC50 (Human recombinant MMP-9; value outside parentheses): 224 nM; IC50 (Human recombinant MMP-14; value outside parentheses): > 10000 nM; IC50 (Human recombinant MMP-13; value outside parentheses): 0.95 nM
COc1ccc(C(=O)CCCc2ccc(S(=O)(=O)C3(C(=O)NO)CCOCC3)cc2)cc1 [Example 231],–,–,–,–,–,> 10000 nM,1.6 nM,10.2 nM,642 nM,0.2 nM,–
COc1ccc(C(=O)C(O)CCOc2ccc(S(=O)(=O)C3(C(=O)NO)CCOCC3)cc2)cc1 (centres unmarked) [Example 184],–,–,–,–,–,1530 nM,30.4 nM,104 nM,2720 nM,3.9 nM,–
O=C1c2cc(Cl)c(Cl)cc2C(=O)N1CCCOc1ccc(S(=O)(=O)C2(C(=O)NO)CCOCC2)cc1 [Example 333],> 10000 nM,656 nM,3240 nM,> 10000 nM,1.8 nM,–,–,–,–,–,–
